Experimental findings from patent US8563746B2, “Cyclic benzimidazole derivatives useful as anti-diabetic agents” (Merck Sharp & Dohme Corp, priority 2008, dated 2013) are described below.

The first test deals with recombinant human AMPK complex 1 (containing α1β1γ1) (Homo sapiens, UniProt Q13131+Q9Y478). In words: In vitro AMPK activation assay ([…]). The class given is biochemical.
Sequence of recombinant human AMPK complex 1 (containing α1β1γ1) (Q13131 whole entry): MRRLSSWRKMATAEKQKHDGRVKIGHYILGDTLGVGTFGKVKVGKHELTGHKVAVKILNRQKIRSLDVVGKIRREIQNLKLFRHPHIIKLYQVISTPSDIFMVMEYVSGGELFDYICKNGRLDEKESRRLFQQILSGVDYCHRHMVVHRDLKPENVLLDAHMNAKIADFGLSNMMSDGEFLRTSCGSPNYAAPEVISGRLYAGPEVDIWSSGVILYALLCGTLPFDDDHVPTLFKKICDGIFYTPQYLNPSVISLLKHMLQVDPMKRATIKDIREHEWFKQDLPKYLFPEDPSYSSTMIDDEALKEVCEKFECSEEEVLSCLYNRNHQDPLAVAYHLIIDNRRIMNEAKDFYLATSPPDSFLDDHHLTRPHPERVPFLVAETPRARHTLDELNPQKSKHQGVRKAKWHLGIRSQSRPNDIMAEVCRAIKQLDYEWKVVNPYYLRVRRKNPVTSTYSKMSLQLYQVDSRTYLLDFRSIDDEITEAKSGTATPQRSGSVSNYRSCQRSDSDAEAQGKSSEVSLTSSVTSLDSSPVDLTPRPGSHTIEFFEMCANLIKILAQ
Sequence of recombinant human AMPK complex 1 (containing α1β1γ1) (Q9Y478 whole entry): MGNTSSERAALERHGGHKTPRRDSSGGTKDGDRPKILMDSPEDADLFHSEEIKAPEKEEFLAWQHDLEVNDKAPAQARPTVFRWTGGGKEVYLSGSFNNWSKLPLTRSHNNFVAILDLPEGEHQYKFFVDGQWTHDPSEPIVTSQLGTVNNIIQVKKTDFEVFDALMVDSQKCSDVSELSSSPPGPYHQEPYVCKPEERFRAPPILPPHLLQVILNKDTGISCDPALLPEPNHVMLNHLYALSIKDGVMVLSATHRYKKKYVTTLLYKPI
Sequence of recombinant human AMPK complex 1 (containing α1β1γ1) (P54619 whole entry partner): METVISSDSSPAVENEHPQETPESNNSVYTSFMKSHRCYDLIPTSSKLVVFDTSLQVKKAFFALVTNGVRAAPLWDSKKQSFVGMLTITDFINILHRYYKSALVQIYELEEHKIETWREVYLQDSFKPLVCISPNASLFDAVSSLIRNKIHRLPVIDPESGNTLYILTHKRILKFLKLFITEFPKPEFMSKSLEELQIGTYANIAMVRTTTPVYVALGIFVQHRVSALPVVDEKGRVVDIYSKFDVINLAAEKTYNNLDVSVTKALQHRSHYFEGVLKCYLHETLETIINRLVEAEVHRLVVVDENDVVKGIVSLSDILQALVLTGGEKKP
Details: not given
Here is the method: The recombinant human AMPK complex 1 (containing α1β1γ1) was obtained from baculovirus expression system. Recombinant viruses were generated by cotransfection of AMPK/pBacPak9 clones with Baculogold baculovirus DNA (Pharmingen) in spodoptera frugiperda 21 cells according to the manufacturer's instructions. Each round of virus amplification was performed for 5 days in Grace's medium containing 10% serum. Virus that had been subjected to three rounds of amplification was used for all protein production procedures. To express the AMPK complex, sf21 cells were adapted to serum free medium (SF900 II, Invitrogen) by sequential dilution from serum containing stocks into SF900II medium and maintained in shaker flasks at 90 rpm at 27° C. The recombinant AMPK enzyme complex was produced by triple infection, one recombinant virus for each of the subunits, in sf21 cells under serum free conditions. Cells were infected in log phase, 1×10^6 cells/ml, at a multiplicity of infection of ˜5. Cells were harvested by centrifugation at 10,000×g for 15 minutes after 72 hours of infection with viruses. The insect cell pellet from 2 liters of culture was resuspended in 50 ml lysis buffer (20 mM Tris-HCl, 50 mM NaCl, 50 mM NaF, 30 mM Na PPi, 0.25 M sucrose, 10 mM ZnCl2, 2 mM DTT, 0.4 mg/ml digitonin) and subjected to two cycles of freeze-thaw lysis in a dry-ice ethanol bath. Insoluble material was removed by centrifugation at 10,000×g and the supernatant was fractionated with use of polyethylene glycol (PEG). The protein fraction precipitating between 2.5 and 6% PEG was used for further purification using a Blue-Sepharose step (Zhou et al, J. Clin. Invest. 108, 1167-1174, 2001).
The total in vitro AMPK activation assay volume is 50 μl in a 96-well plate. The reaction mixture contained 100 μM ATP (0.5 μCi ^33P-ATP per reaction), and 50 μM SAMS ([…]) in a buffer (20 mM HEPES, pH 7.0, 5 mM MgCl2, 0.01% Brij35). The reaction was initiated with addition of the enzyme. After 30-minute incubation at 30° C., the reaction was stopped by addition of 80 μl 1% H3PO4. Aliquots (100 μl) were transferred to 96-well MultiScreen plates (MAPHNOB50; Millipore Corp., Bedford, Mass., USA). The plate was washed three times with 1% H3PO4 followed by detection in a Top-count. The counts per minute from the basal activity (the reaction without activator) was subtracted from each well and the data were expressed as % maximum AMP activation followed by EC50 calculation.
As to `O=C(O)CSc1nc2cc(C#Cc3ccccc3)c(Cl)cc2[nH]1` [Example 1, (6-Chloro-5-phenylethynyl-1H-benzoimidazol-2-ylsulfanyl)-acetic acid], the EC50 was found to be 259 nM.
Same read-out and setting: next, `O=C(O)CSc1nc2cc(-c3ccc(-c4ccccc4)cc3)c(Cl)cc2[nH]1` [Example 2, (5-Biphenyl-4-yl-6-chloro-1H-benzoimidazol-2-ylsulfanyl)-acetic acid]: 90 nM.

Staying with this test, now noted: recombinant human AMPK complex 1 (α1β1γ1); basal activity subtracted, expressed as % maximum AMP activation.
With `O=C(O)CSc1nc2cc(-c3ccc4c(c3)OCO4)c(Cl)cc2[nH]1` [Example 3, (5-1,3-benzo-dioxol-5-yl-6-chloro-1H-benzimidazol-2-ylsulfanyl)-acetic acid], the Emax is over 40%.
Still for that read-out and setting: next, `O=C(O)CSc1nc2cc(-c3cccc(F)c3)c(Cl)cc2[nH]1` [Example 4, [6-chloro-5-(3-fluoro-phenyl)-1H-benzimidazol-2-ylsulfanyl]-acetic acid]: over 40%; `O=C(O)CSc1nc2cc(-c3cc(F)cc(F)c3)c(Cl)cc2[nH]1` [Example 5, [6-chloro-5-(3,5-difluoro-phenyl)-1H-benzimidazol-2-ylsulfanyl]-acetic acid]: over 40%; `CC(=O)NCc1ccc(-c2cc3nc(SCC(=O)O)[nH]c3cc2Cl)cc1` [Example 7, 2-(6-(4-(acetamido-methyl)phenyl)-5-chloro-1H-benzo[d]-imidazol-2-ylthio)-acetic acid]: over 40%.
Same read-out and setting: next, `O=C(O)CSc1nc2cc(-c3ccc(O)cc3)c(Cl)cc2[nH]1` [Example 8, 2-(6-chloro-5-(4-hydroxyphenyl)-1H-benzo[d]imidazol-2-ylthio)acetic acid]: over 40%; `O=C(O)CSc1nc2cc(-c3ccc(CO)cc3)c(Cl)cc2[nH]1` [Example 9, 2-(6-chloro-5-(4-(hydroxymethyl)phenyl)-1H-benzo[d]-imidazol-2-ylthio)-acetic acid]: over 40%; `Nc1ccccc1C#Cc1cc2nc(SCC(=O)O)[nH]c2cc1Cl` [Example 10, 2-(5-((2-amino-phenyl)ethynyl)-6-chloro-1H-benzo[d]-imidazol-2-ylthio)-acetic acid]: over 40%.
In the case of `O=C(O)CSc1nc2cc(-c3ccc4cn[nH]c4c3)c(Cl)cc2[nH]1` [Example 11, 2-(6-chloro-5-(1H-indazol-6-yl)-1H-benzo[d]imidazol-2-ylthio)acetic acid], the Emax is over 40%.
Same read-out and setting: for `COc1ccc(-c2cc3nc(SCC(=O)O)[nH]c3cc2Cl)cn1` [Example 12, 2-(6-chloro-5-(6-methoxypyridin-3-yl)-1H-benzo[d]imidazol-2-ylthio)acetic acid] the value was over 40%.
With `O=C(O)CSc1nc2cc(-c3cc4ccccc4o3)c(Cl)cc2[nH]1` [Example 13, 2-(5-(benzofuran-2-yl)-6-chloro-1H-benzo[d]imidazol-2-ylthio)acetic acid], the Emax was over 40%.
For `O=C(O)CSc1nc2cc(-c3csc4ccccc34)c(Cl)cc2[nH]1` [Example 14, 2-(5-(benzo[b]-thiophen-3-yl)-6-chloro-1H-benzo[d]-imidazol-2-ylthio)-acetic acid], the Emax was over 40%.
For the compound `O=C(O)CSc1nc2cc(-c3ccc(-n4cccn4)cc3)c(Cl)cc2[nH]1` [Example 15, 2-(5-(4-(1H-pyrazol-1-yl)phenyl)-6-chloro-1H-benzo[d]imidazol-2-ylthio)acetic acid], the Emax is over 40%.
On the same count and under the same terms, next, `O=C(O)CSc1nc2cc(-c3ccc(-c4ccn[nH]4)cc3)c(Cl)cc2[nH]1` [Example 16, 2-(5-(4-(1H-pyrazol-5-yl)phenyl)-6-chloro-1H-benzo[d]imidazol-2-ylthio)acetic acid]: over 40%; `CC(=O)Nc1cccc(C#Cc2cc3nc(SCC(=O)O)[nH]c3cc2Cl)c1` [Example 17, 2-(5-((3-acetamido-phenyl)ethynyl)-6-chloro-1H-benzo[d]-imidazol-2-ylthio)-acetic acid]: over 40%.
Still for that read-out and setting: for `CS(=O)(=O)c1ccc(C#Cc2cc3nc(SCC(=O)O)[nH]c3cc2Cl)cc1` [Example 19, [6-chloro-5-(4-methanesulfonyl-phenyl-ethynyl)-1H-benzo-imidazol-2-yl-sulfanyl]-acetic acid] the value was over 40%; for `N#Cc1ccccc1C#Cc1cc2nc(SCC(=O)O)[nH]c2cc1Cl` [Example 20, [6-chloro-5-(2-cyano-phenyl-ethynyl)-1H-benzo-imidazol-2-ylsulfanyl]-acetic acid], over 40%.
Still for that read-out and setting: for `O=C(O)CSc1nc2cc(C#CC3CCNCC3)c(Cl)cc2[nH]1` [Example 21, (6-chloro-5-piperidin-4-ylethynyl-1H-benzoimidazol-2-ylsulfanyl)-acetic acid] the value was over 40%.
On to `O=C(O)CSc1nc2cc(C#Cc3ccc(F)cc3)c(Cl)cc2[nH]1` [Example 22], for which the Emax was over 40%.
Same read-out and setting: next, `O=C(O)CSc1nc2cc(C#Cc3cccc(F)c3)c(Cl)cc2[nH]1` [Example 23]: over 40%; `O=C(O)CSc1nc2cc(C#Cc3ccc(F)cc3F)c(Cl)cc2[nH]1` [Example 24, [6-chloro-5-(2,4-difluoro-phenyl-ethynyl)-1H-benzoimidazol-2-ylsulfanyl]-acetic acid]: over 40%; `O=C(O)CSc1nc2cc(C#Cc3ccncc3)c(Cl)cc2[nH]1` [Example 25, (6-chloro-5-pyridin-4-yl-ethynyl-1H-benzoimidazol-2-ylsulfanyl)-acetic acid]: over 40%.
Same read-out and setting: for `O=C(O)CSc1nc2cc(C#CCOc3ccccc3)c(Cl)cc2[nH]1` [Example 26, [6-chloro-5-(3-phenoxy-prop-1-ynyl)-1H-benzo-imidazol-2-yl-sulfanyl]-acetic acid] the value was over 40%; for `O=C(O)CSc1nc2cc(C#Cc3ccccc3F)c(Cl)cc2[nH]1` [Example 27], over 40%; for `N#Cc1ccc(C#Cc2cc3nc(SCC(=O)O)[nH]c3cc2Cl)cc1` [Example 28, [6-chloro-5-(4-cyano-phenyl-elhynyl)-1H-benzoimidazol-2-ylsulfanyl]-acetic acid], over 40%.
Same read-out and setting: for `O=C(O)CSc1nc2cc(C#Cc3cccc(O)c3)c(Cl)cc2[nH]1` [Example 29, [6-chloro-5-(3-hydroxyphenyl-ethynyl)-1H-benzoimidazol-2-ylsulfanyl]-acetic acid] the value was over 40%.
As to `Cc1ccccc1C#Cc1cc2nc(SCC(=O)O)[nH]c2cc1Cl` [Example 30, (6-chloro-5-o-tolylethynyl-1H-benzo-imidazol-2-ylsulfanyl)-acetic acid], the Emax was over 40%.
The same measure, in the same setting: next, `Cc1cccc(C#Cc2cc3nc(SCC(=O)O)[nH]c3cc2Cl)c1` [Example 31, (6-chloro-5-m-tolylethynyl-1H-benzoimidazol-2-ylsulfanyl)-acetic acid]: over 40%.

Still in this test, the particulars now being: recombinant human AMPK complex 1 (α1β1γ1); read-out: EC50.
On to `O=C(O)CSc1nc2cc(-c3ccc(-c4ccccc4O)cc3)c(Cl)cc2[nH]1` [Example 6, 2-(6-chloro-5-(2′-hydroxybiphenyl-4-yl)-1H-benzo[d]imidazol-2-ylthio)acetic acid], for which the 50% effective concentration (EC50) worked out at 13 nM.
Same read-out and setting: next, `O=C(O)CSc1nc2cc(C#Cc3ccc(CO)cc3)c(Cl)cc2[nH]1` [Example 18, [6-Chloro-5-(4-hydroxymethyl-phenylethynyl)-1H-benzoimidazol-2-ylsulfanyl]-acetic acid]: 248 nM.

For orientation: EC50 means the concentration at which the effect is half-maximal. For orientation: Emax means the greatest response seen or fitted, relative to the assay's reference.
